Source: US12565485B2, “Solid forms of 1-((S)-4-((R)-7-(6-amino-4-methyl-3-(trifluoromethyl)pyridin-2-yl)-6-chloro-8-fluoro-2-(((s)-1-methylpyrrolidin-2-yl)methoxy)quinazolin-4-yl)-3-methylpiperazin-1-yl)prop-2-en-1-one” (Genentech, Inc., priority 2022, dated 2026)

Key:
[1] = Slurry conversion experiments (XRPD of isolated solids); assay type: physicochemical; details: for Slurry conversion result (XRPD form): different solvent systems
Method: Slurry conversion experiments were conducted at RT in different solvent systems. About 15˜20 mg of freebase starting material (Compound 1) was suspended in 0.5 mL of solvent in an HPLC vial. Solids were isolated for XRPD analysis after magnetically stirring at RT.
Slurry at 5°. Slurry conversion experiments were conducted at 5° C. in different solvent systems. About 15˜20 mg of freebase starting material (Compound 1) was suspended in 0.5 mL of solvent in an HPLC vial. Solids were isolated for XRPD analysis after magnetically stirring at 5° C.
Slurry at 50°. Slurry conversion experiments were conducted at 50° C. in different solvent systems. About 20 mg of freebase starting material (Compound 1) was suspended in 0.5 mL of solvent in an HPLC vial. Solids were isolated for XRPD analysis after magnetical stirring at 50° C.
Slurry at RT for Compound A. Slurry conversion experiments were conducted at RT in different solvent systems. […] Solids were isolated for XRPD analysis after magnetic stirring at RT.
Slurry at 50° for Compound A. Slurry conversion experiments were conducted at 50° C. in different solvent systems. […] Solids were isolated for XRPD analysis after magnetic stirring at 50° C.

[2] = Solid vapor diffusion; assay type: physicochemical; details: RT; for Result: Compound A
Method: Solid vapor diffusion Compound A. Solid vapor diffusion experiments were conducted using 12 different solvents. […] The 20-mL vial was sealed with a cap and kept at RT allowing solvent vapor to interact with the sample.

Slurry conversion result (XRPD form) ([1]; 50° C.): Compound A Form A was obtained
Result ([1]; Compound A slurry at 50° C., Anisole): Compound A Form A
Result ([1]; Compound A slurry at 50° C., CPME): Compound A Form A
Result ([1]; Compound A slurry at 50° C., EtOAc): Compound A Form A
Result ([1]; Compound A slurry at 50° C., IPAc): Compound A Form A
Result ([1]; Compound A slurry at 50° C., MIBK): Compound A Form A
Result ([1]; Compound A slurry at 50° C., MTBE): Compound A Form A
Result ([1]; Compound A slurry at 50° C., Toluene): Compound A Form A
Result ([1]; Compound A slurry at 50° C., n-Heptane): Compound A Form A
Result ([1]; Compound A slurry at RT, 1,4-Dioxane): Compound A Form A
Result ([1]; Compound A slurry at RT, 1,4-Dioxane/IPAc, 1:3): Compound A Form A
Result ([1]; Compound A slurry at RT, 1,4-Dioxane/n-Heptane, 1:3): Compound A Form A
Result ([1]; Compound A slurry at RT, 2-MeTHF/Toluene, 1:4): Compound A Form A
Result ([1]; Compound A slurry at RT, ACN): Compound A Form A
Result ([1]; Compound A slurry at RT, Acetone): Compound A Form A
Result ([1]; Compound A slurry at RT, Acetone/Anisole, 1:3): Compound A Form A
Result ([1]; Compound A slurry at RT, Acetone/n-Heptane, 1:3): Compound A Form A
Result ([1]; Compound A slurry at RT, DCM/IPA, 1:4): Compound A Form A
Result ([1]; Compound A slurry at RT, DMSO/H2O, 1:6): Clear solution
Result ([1]; Compound A slurry at RT, EtOH/n-Heptane, 1:6): Compound A Form A
Result ([1]; Compound A slurry at RT, H2O): Clear solution
Result ([1]; Compound A slurry at RT, H2O/ACN, 1:4): Gel
Result ([1]; Compound A slurry at RT, H2O/IPA, 1:4): Gel
Result ([1]; Compound A slurry at RT, IPA): Compound A Form A
Result ([1]; Compound A slurry at RT, MEK): Compound A Form A
Result ([1]; Compound A slurry at RT, MEK/MTBE, 1:3): Compound A Form A
Result ([1]; Compound A slurry at RT, MEK/n-Heptane, 1:3): Compound A Form A
Result ([1]; Compound A slurry at RT, MeOH/CPME, 1:6): Compound A Form A
Result ([1]; Compound A slurry at RT, THF/H2O, 1:6): Clear solution
Slurry conversion result (XRPD form) ([1]; RT): adipate Type A was obtained
Result ([2]; 1,4-Dioxane vapor): Compound A Form A
Result ([2]; ACN vapor): Compound A Form A
Result ([2]; Acetone vapor): Compound A Form A
Result ([2]; DCM vapor): Compound A Form A
Result ([2]; DMF vapor): Compound A Form A
Result ([2]; DMSO vapor): Compound A Form A
Result ([2]; EtOAc vapor): Compound A Form A
Result ([2]; EtOH vapor): Compound A Form A
Result ([2]; H2O vapor): Compound A Form A
Result ([2]; IPA vapor): Compound A Form A
Result ([2]; MeOH vapor): Compound A Form A
Result ([2]; THF vapor): Compound A Form A
Solid vapor diffusion result (XRPD form) ([2]; 12 different solvents): Compound A Form A was obtained
Structure (SMILES): C=CC(=O)N1CCN(c2nc(OC[C@@H]3CCCN3C)nc3c(F)c(-c4nc(N)cc(C)c4C(F)(F)F)c(Cl)cc23)[C@@H](C)C1 [Compound A Form A]
